Consider three compounds from patent publication US20030083304A1, “CCAAT/enhancer binding protein-beta (C/EBPbeta) is a molecular target for cancer treatment” (priority 2001, published 2003).

One data set has as its system epidermal keratinocytes. As to the kind of experiment: Apoptotic epidermal keratinocytes in DMBA-treated mice. The format is in vivo, mouse. As to conditions: for Apoptotic Keratinocytes (%): single application 400 nmol DMBA. The text has this: The lack of tumor development in carcinogen treated C/EPBβ-null mice could be due to apoptosis of C/EBPβ-deficient keratinoyctes that have acquired oncogenic Ha-ras lesions. To examine this possibility we treated mice with DMBA and scored the number of apoptotic keratinocytes in C/EBPβ-null and wild type epidermis using the cytological parameters described in the Methods. […] Similar fold increases in apoptotic cells were observed using TUNEL staining (data not shown). To determine if C/EBPβ-null mice also display increased apoptosis in response to UVB irradiation, a potent inducer of apoptosis and DNA damage, wild type and C/EBPβ-null mice were irradiated with UVB doses of 50, 100 and 200 mJ/cm^2. While all UVB doses increased the number of apoptotic epidermal keratinocytes, there was no difference between wild type and mutant mice (data not shown).

Another data set concerns mouse skin. As to conditions: in vivo.
A further data set has as its system C/EBPβ. As to the kind of experiment: Ha-ras (12V)-induced activation of C/EBPβ in mouse keratinocytes. The format is cell-based. The text has this: A MAPK site has been identified in C/EBPβ. Replacing Thr-188 with an Ala-188 within this site completely blocks Ras-induced activation of C/EBPβ. […] Thus, the MAPK site in C/EBPβ, which is conserved in mouse, rat, bovine and human, is important in Ras signaling. Accordingly, useful compounds of the present invention are MAPK inhibitors such as PD98059, or compounds that bind the MAPK site in C/EBPβ and thus block oncogenic ras-induced activation.

Structures are written as SMILES. Marks after values point to notes of the source that are not given here.

Regarding `Cc1c2ccccc2c(C)c2c1ccc1ccccc12` [DMBA, 7,12-dimethylbenz[a]anthracene], the “increase in the number of basal apoptotic keratinocytes, C/EBPβ-null vs wild type mice” value in the data set on epidermal keratinocytes (DMBA-treated) is 17 fold. For the same compound, the “Apoptotic Keratinocytes (%)” value with epidermal keratinocytes (C/EBPβ −/− mice) is listed as 1.73 ± 0.14^ab %. For the same compound, the “Apoptotic Keratinocytes (%)” value in the data set on epidermal keratinocytes (wild type mice) is on record as 0.10 ± 0.02^a %. Moreover, the average papillomas/mouse in the data set on mouse skin (129/Sv x C57BL/6 (wild type)) is 12 papillomas/mouse. In addition, in the data set with mouse skin, the papilloma incidence result is “All of the wild-type mice developed papillomas” and the resistance to carcinogenesis result is given as “completely resistant”.

Take `COc1cccc(-c2cc(=O)c3ccccc3o2)c1N` [PD98059]: the “Ha-ras (12V)-induced activation of C/EBPβ” value in the data set on C/EBPβ is “partially blocks”.

On to `ClC1(Cl)C2(Cl)C3(Cl)C4(Cl)C(Cl)(Cl)C5(Cl)C3(Cl)C1(Cl)C5(Cl)C24Cl` (centres unmarked) [mirex], for which the tumor development entry in the data set on mouse skin is reported as “refractory”.
